The text below walks through data of publication PMC4579064 (Toxicology and applied pharmacology, 2015).

Molecules are shown by their SMILES.

The target in one data set is T1, CYP2A6 (Homo sapiens, UniProt P11509).
T1 sequence (P11509 1-494): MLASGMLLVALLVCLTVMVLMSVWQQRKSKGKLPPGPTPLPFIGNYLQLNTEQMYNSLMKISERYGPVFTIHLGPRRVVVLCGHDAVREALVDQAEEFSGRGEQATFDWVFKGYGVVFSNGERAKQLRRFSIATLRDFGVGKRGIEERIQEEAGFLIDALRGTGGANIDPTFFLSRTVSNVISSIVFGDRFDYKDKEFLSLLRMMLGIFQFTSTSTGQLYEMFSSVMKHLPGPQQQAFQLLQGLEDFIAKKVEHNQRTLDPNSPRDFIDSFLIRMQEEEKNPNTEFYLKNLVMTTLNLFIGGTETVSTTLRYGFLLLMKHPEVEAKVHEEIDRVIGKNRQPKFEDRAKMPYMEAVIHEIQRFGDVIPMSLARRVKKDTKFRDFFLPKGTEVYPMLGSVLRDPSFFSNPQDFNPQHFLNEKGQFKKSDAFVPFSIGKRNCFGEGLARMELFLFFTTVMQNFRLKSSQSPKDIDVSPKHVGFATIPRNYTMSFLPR
The data set is described as follows: recombinant CYP activity with fluorogenic substrate. It is filed as biochemical.

In a further data set the target is T2, CYP2B6 (Homo sapiens, UniProt P20813).
T2 sequence (P20813 1-491): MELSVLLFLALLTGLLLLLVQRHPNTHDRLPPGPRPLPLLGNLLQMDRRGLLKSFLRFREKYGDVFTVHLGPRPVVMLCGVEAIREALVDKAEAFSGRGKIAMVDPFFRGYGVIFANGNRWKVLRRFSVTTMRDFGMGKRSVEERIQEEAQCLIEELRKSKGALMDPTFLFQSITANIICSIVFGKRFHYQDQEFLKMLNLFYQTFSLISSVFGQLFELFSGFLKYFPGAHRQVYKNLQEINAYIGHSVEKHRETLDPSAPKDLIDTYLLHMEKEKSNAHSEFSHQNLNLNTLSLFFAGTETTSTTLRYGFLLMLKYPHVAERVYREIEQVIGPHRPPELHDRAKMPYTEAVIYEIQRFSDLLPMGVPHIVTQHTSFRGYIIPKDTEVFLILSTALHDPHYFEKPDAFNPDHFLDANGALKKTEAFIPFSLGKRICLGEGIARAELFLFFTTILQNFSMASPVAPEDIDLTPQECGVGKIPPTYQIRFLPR
The data set is described as above. The class given is biochemical.

The target in a further data set is T3, CYP2C8 (Homo sapiens, UniProt P10632).
T3 sequence (P10632 1-490): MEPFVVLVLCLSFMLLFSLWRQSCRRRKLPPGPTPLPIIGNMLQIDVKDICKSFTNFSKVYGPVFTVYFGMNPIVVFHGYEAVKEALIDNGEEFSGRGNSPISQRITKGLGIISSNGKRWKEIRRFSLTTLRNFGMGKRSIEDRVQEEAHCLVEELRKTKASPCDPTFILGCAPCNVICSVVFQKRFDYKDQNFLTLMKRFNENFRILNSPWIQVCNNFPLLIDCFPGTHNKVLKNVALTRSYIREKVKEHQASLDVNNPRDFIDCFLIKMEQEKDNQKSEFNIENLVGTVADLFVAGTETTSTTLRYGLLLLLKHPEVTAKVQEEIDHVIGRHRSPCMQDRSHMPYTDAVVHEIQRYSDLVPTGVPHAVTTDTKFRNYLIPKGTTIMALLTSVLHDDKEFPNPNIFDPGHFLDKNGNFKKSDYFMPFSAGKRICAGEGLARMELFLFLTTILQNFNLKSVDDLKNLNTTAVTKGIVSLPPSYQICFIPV
The data set is described as above. It is filed as biochemical.

The test system of a further data set is brain ChE. Description: brain ChE activity in parathion-treated rats. It is filed as in vivo, rat. Conditions: parathion 8 mg/kg oral, menadione 40 mg/kg ip 20 min after parathion, 60 min.
Data set [1] concerns the target T4, CYP1A2 (Homo sapiens, UniProt P05177).
T4 sequence (P05177 2-516 limits assumed): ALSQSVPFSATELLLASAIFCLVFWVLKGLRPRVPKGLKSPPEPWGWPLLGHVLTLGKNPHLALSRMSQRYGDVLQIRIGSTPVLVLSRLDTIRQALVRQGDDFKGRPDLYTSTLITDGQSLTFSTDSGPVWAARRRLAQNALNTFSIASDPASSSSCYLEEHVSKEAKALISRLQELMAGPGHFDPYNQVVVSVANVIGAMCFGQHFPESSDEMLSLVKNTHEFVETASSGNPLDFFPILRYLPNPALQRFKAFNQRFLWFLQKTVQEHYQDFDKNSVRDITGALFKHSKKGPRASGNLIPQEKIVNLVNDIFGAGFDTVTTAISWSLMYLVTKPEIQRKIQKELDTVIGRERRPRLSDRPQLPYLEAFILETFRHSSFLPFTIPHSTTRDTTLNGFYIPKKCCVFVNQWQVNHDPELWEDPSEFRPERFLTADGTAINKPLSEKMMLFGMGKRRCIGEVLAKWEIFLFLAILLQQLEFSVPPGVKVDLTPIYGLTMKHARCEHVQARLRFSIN

The next data set has as its target CYP3A4 (Homo sapiens, UniProt P08684).
The target of data set [2] is T4, CYP1A2. Description: recombinant CYP activity with fluorogenic substrate.

CYP3A4, sequence (P08684 2-503 limits assumed): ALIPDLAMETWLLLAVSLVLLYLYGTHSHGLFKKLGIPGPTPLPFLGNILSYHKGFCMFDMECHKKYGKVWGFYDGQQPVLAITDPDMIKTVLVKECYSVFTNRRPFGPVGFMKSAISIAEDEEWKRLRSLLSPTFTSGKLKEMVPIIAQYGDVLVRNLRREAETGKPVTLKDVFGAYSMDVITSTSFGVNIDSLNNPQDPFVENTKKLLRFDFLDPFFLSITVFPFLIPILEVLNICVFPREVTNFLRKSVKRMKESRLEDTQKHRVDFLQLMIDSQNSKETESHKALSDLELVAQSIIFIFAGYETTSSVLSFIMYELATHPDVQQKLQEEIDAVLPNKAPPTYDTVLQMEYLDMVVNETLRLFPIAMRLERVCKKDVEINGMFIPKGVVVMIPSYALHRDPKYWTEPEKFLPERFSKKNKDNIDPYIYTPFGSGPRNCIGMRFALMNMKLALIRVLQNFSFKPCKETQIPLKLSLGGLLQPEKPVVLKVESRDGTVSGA

The IC50 is the concentration that gives 50% inhibition. Take `CC1=CC(=O)c2ccccc2C1=O` [menadione, 2-methylnaphthalene-1,4-dione]: the IC50 on CYP2A6 amounted to 8.01 ± 0.62 µM; at CYP2B6 it was 5.76 ± 0.78 µM; on CYP2C8, 2.36 ± 0.11 µM; at CYP1A2 [2], 4.51 ± 0.57 µM. Also, the “forebrain ChE inhibited” value with brain ChE came out at 11%. For the same compound, the “hindbrain ChE inhibited” value in the data set with brain ChE was 17%. Also, the paraoxon formation result at CYP1A2 [1] and at CYP3A4 was “marked decrease” in each case.
